Assay results taken from article PMC11755785 (Langmuir, 2025).
Read-outs that look alike come from different tables or passages of the source. Values belong to the compound of their own block, whether it stands above or below them.

What was measured:
[1] = design: method as in PMID 34606770; conditions: Chart 1; cited from earlier work
[2] = cited from earlier work
[3] = Phase-solubility diagram with HP-β-CD; type: physicochemical; design: stability constant K1:2 with HP-β-CD: unit not given here
[4] = UVA1 (365 nm) photodegradation in aqueous buffer, UV–vis spectra / RP-HPLC; type: physicochemical; conditions: for UVA1 photodegradation (spectral change): 50 μM, aqueous; for disruption on exposure to UV light: 4 h
Method: (§1) The samples were obtained after passage for appropriate periods and measured using an UV–vis spectrophotometer in the maximum range between 200 and 700 nm (arranged on demand) from long wavelengths toward short wavelengths to avoid unnecessary irradiation of the UV region. To obtain HPLC chromatograms, aliquots of the UV-irradiated solution were obtained by pipetting at 0, 1/5, 1/2, 1, 2, 3, 4, 24, 48, 72, 96, 120, 144, and 168 h for AVB and at 0, 1, 2, 3, and 18 h for CUR. To obtain those of OXB in the absence or presence of β-CD, the invariable samples were certified at 0 and 48 h. For the samples in acetonitrile aqueous solution or methanol aqueous solution at a ratio of 7:3, the time evolution of the UVA1 irradiated solution was examined under similar conditions.

[5] = Flask-shaking 1-octanol/water partition, log D–pH profile fitted to Avdeef's diagram; type: physicochemical; conditions: modified Britton–Robinson buffers pH 5–11.5, 298 K
Method: The aqueous-phase solvents were prepared by mixing 25 mM KH2PO4 and 25 mM Na2HPO4 solutions in 25 mM Pi buffer. The pH was adjusted before fixing the prescribed concentrations of the acid components of the buffer. The JP1 and JP2 buffer solutions were 10 mM sodium citrate/HCl buffer (pH 1.2) and Pi buffer (pH 6.8), which were prepared in compliance with the description for solution media for the dissolution test in Japanese Pharmacopeia (JP)-implemented international harmonization. The modified Britton–Robinson universal pH buffer comprised 28.6 mM KH2PO4, 28.6 mM HBO2, and 28.6 mM NaCl, titrated with 1 M NaOH (here, modified means elimination of barbital to cancel its interaction with organic solutes). For the partition equilibrium examination, the aqueous saturated 1-octanol phase comprised 1-octanol, which was flooded with a modified Britton–Robinson buffer adjusted to the appropriate pH in advance.
The hydrophobic drug dissolved in the aqueous saturated 1-octanol phase was mixed with an isochoric solution of the modified Britton–Robinson buffer (pH 5–11.5), saturated with 1-octanol. Thereafter, the samples in the screw-capped vials were machine-shaken at 298 K in a thermostatic chamber for 60 min and subsequently kept stationary for 60 min; the procedure corresponds to the conventional “flask-shaking” method.[41]−[43] After settling, the pH in the aqueous phase was confirmed using pH indicator strips (MColoHast pH 0–6.0, MQuant pH 7.5–14, and MQuant pH 0–14, Merck, Germany) to be that of the adjusted pH value. Aliquots (10 μL) from the 1-octanol and the aqueous layers were injected into the HPLC instrument. The 1-octanol/water partition coefficients, log P (equivalent to log KOW), and acid dissociation constants, pKa, were optimized using curve fitting, approximated by eq 1 [drawing 1] 1 which is Avdeef’s diagram[44] derived from the Henderson–Hasselbalch expression for the equilibrium between the protonated and deprotonated species. The curve-fitting procedures used the solver module of Microsoft Excel 2016 with the implemented GRG nonlinear option. Approximate curves corresponding to these optimized parameters were drawn, and the pKa and log P values for AVB, OXB, and CUR were obtained.

[6] = Phase-solubility diagram with β-CD
Method: The solutions were mechanically shaken at 298 K in a thermostatic chamber, and the supernatant was sampled and filtered after passage for appropriate periods. The concentration of the drug in the supernatant was determined using HPLC.
The phase-solubility diagram consists of the equilibrium concentration of the guest drug as the ordinate and the total concentration of the host CD as the abscissa.[45] If a straight line and parabolic curve can be approximated on the phase-solubility diagram, then, the curves are classified as AL- and AP-types in the Higuchi and Connors catalogs, respectively.[45],[46]
Multiple regression analysis of the measured data set to the total concentration of the host ([CD]) and its squares ([CD]^2) using eq 3 can be used to obtain the stability constants for a combination of the equimolar complex K1:1 and double-host associating complex K1:2.[45],[46] [drawing 3] 3 This is the sum of the dissociated (free) and associated (complexed) drug concentrations. Although the Benesi–Hildebrand equation with the square of the host concentration has been used for parabolic correlations, its validity remains unclear.
This curve is classified as the AN-type on the Higuchi and Connors catalog.[45]−[48] The curve is described by eq 4′ according to the Langmuir adsorption isotherm model.[47]−[51] To process with the linear regression analysis of ordinate ([CD]/γ) referred to abscissa ([CD]), the Hanes–Woolf expression in eq 4′ may be used [drawing 4] 4 [drawing 5] 4′ where n indicates the asymptotic concentration of the drug associated with CD (saturation, maximal γ) and K is equivalent to the drug/CD complex stability constant. […] The stoichiometry of a complex of drugs with CD is difficult to determine; the prevailing opinion is that more than one guest molecule incorporates a host molecule and that hydration or ionization of the guest regulates the solubility of the complex.[46]
Szejtili[46] stated that, in rare cases, the ascending region at lower host concentrations is followed by a plateau region, similar to that of the AN-type saturation curve. Simultaneously, it terminates at any host concentration threshold. It is named the BS-type in the Higuchi and Connors catalog,[45]−[48] and for concentrations higher than the threshold, the guest concentration decreases along a hyperbola, probably according to the solubility product KSP.[49] To analyze this type of pattern, a hypothesis that is yet to be discussed is required.[52] […] At the threshold concentration of CD, the scale of the aggregated dispersoids transcends an upper limit, and the aggregation induces subsequent sedimentation.[52] Thus, the solubility product may be considered a property of poorly soluble aggregated dispersoids containing a tolerable amount of the drug and an excess amount of CD.

[7] = Photostability under solar light, UV–vis spectra; type: physicochemical; conditions: solar light 4 h, 50 μM
Method: The photostability of the drug under solar light was evaluated using UV–vis spectral measurements. Sample solutions were exposed to solar light outdoors at a sunny location on a latitude of 35.92° N and a longitude of 139.91° E for 4 h, from 12:00 to 16:00, at an average temperature of 284.55 K.

[8] = UVA1 (365 nm) photodegradation in isochoric acetonitrile/water solvent; type: physicochemical
Method: as §1

[9] = design: method as in Yan et al. 95; conditions: ref Yan et al. 95; cited from earlier work
[10] = cited from earlier work; remark: listed apart in the source
[11] = cited from earlier work; remark: listed apart in the source
[12] = 25 mM Pi/NaOH buffer pH 6.8, 298 K, Figure 2, in M-1 (unit assumed)
[13] = 25 mM Pi/NaOH buffer pH 6.8, 298 K, Figure 2

Compound: CCOCCOC(=O)C=Cc1ccc(OC)cc1 [Cinoxate, cinoxate]
water solubility [1]: high water solubility

Compound: O=S(=O)(O)c1ccc2[nH]c(-c3ccccc3)nc2c1 [Ensulizole, ensulizole]
risk / toxicity property [1]: With photo-oxidizing properties

Compound: CC(O)COC[C@H]1O[C@@H]2O[C@H]3[C@H](O)[C@@H](O)[C@@H](O[C@H]4[C@H](O)[C@@H](O)[C@@H](O[C@H]5[C@H](O)[C@@H](O)[C@@H](O[C@H]6[C@H](O)[C@@H](O)[C@@H](O[C@H]7[C@H](O)[C@@H](O)[C@@H](O[C@H]8[C@H](O)[C@@H](O)[C@@H](O[C@H]1[C@H](O)[C@H]2O)O[C@@H]8COCC(C)O)O[C@@H]7COCC(C)O)O[C@@H]6COCC(C)O)O[C@@H]5COCC(C)O)O[C@@H]4COCC(C)O)O[C@@H]3COCC(C)O (stereo partly drawn) [HP-β-CD, hydroxypropyl-β-cyclodextrin]
aqueous solubility [2]: more than 400 mmol/L

Compound: CC1CC(OC(=O)c2ccccc2O)CC(C)(C)C1 (stereo not shown) [Homosalate, homosalate]
risk / toxicity property [1]: endocrine-disrupting

stability constant K1:1 with HP-β-CD [3, 12]: 366.8
phase-solubility diagram type (Higuchi and Connors) with HP-β-CD ([3]; pH 6.8): AL-type
pKa ([5]; from log D–pH curve fitting, read-out: acid dissociation constant, pKa): 7.97
logP ([5]; neutral form, curve fitting, read-out: 1-octanol/water partition coefficient, log P): 2.99
stability constant K1:1 with β-CD [6, 12]: 2019
concentration change under UVA1 irradiation (290 nm absorbance) ([8]; up to 50 h): marginally reduced
Compound: COc1ccc(C(=O)c2ccccc2)c(O)c1 [OXB]
UVA1 photodegradation (spectral change) ([4]; absence of β-CD): maintenance of the OXB spectrum for 2 days
UVA1 photodegradation (spectral change) ([4]; presence of β-CD): maintenance of the OXB spectrum for 2 days
log Kow ([2]; Chart 1): 3.79
reported pKa [2]: 7.6
stability under solar light compared to UVA1 irradiation ([7]; presence or absence of β-CD): more significant than that observed under UVA1 irradiation

Compound: CCCCC(CC)COC(=O)C=Cc1ccc(OC)cc1 (stereo not shown) [Octinoxate (OCX), octinoxate]
risk / toxicity property [1]: toxic risks for the marine ecosystem

Compound: CCCCC(CC)COC(=O)C(C#N)=C(c1ccccc1)c1ccccc1 (stereo not shown) [Octocrylene (OCR), octocrylene]
biodegradability [1]: poorly biodegradable

Compound: CCCCC(CC)COC(=O)c1ccc(N(C)C)cc1 (stereo not shown) [Padimate-O, padimate O]
risk / toxicity property [1]: insignificant risks

Compound: curcumin
degradation under 425 nm light compared to 620 nm light [9]: 1.7 times faster
CUR saturation concentration in reported AN-type diagram [10]: ≤ 0.00012 mM
stability constant K1:1 with β-CD ([10]; ref Chen et al. 83): 198 M^–1
stability constant K1:1 with β-CD ([10]; ref Mashaqbef et al. 81): 487.3 M^–1
CUR solubility in reported phase-solubility diagram ([10]; speculated by the authors from the report): ≤ 0.016 mM
stability constant K1:2 with HP-β-CD [3, 13]: 2.302
stability constant K1:1 with HP-β-CD [3, 12]: 6619
phase-solubility diagram type (Higuchi and Connors) with HP-β-CD ([3]; pH 6.8): AP-type
stability constant K1:1 with HP-β-CD ([3]; pH 6.8): 6619 M^–1
disruption on exposure to UV light ([4]; solution containing β-CD): 31.90%
disruption on exposure to UV light ([4]; solution without β-CD): 40.95%
acid dissociation constant, pKa ([5]; from log D–pH curve fitting): 8.81
1-octanol/water partition coefficient, log P ([5]; neutral form, curve fitting): 2.65
stability constant K1:2 with β-CD [6, 13]: 74.41
stability constant K1:1 with β-CD [6, 12]: 771.7
phase-solubility diagram type (Higuchi and Connors) with β-CD ([6]; pH 6.8): AP-type
stability constant K1:1 with β-CD ([6]; pH 6.8): 771.7 M^–1
log P [2]: 3.2
updated pKa (first value) [2]: 7.56
updated pKa (second value) [2]: 8.72
updated pKa (third value) [2]: 10.17
pKa (keto-enol) ([2]; first of three pKa values): 7.8
pKa (first phenolic OH) ([2]; second of three pKa values): 8.5
pKa (second phenolic OH) ([2]; third of three pKa values): 9.0
stability constant K1:1 with HP-β-CD ([11]; ref Celebioglu and Uyar 84): 3073 M^–1
stability constant K1:1 with HP-β-CD ([11]; ref Li et al. 85): 2941 M^–1
change in absorption peaks under solar light ([7]; presence of β-CD): significant changes in absorption peaks
effect of equimolar and 4 mM β-CD on photodegradation velocity / first-order rate ([8]; UVA1 365 nm, 25 μM): decreased
